Laboratory results taken from US20230151432A1, “KIF18A INHIBITORS FOR TREATMENT OF NEOPLASTIC DISEASES” (AMGEN INC., priority 2020, published 2023).
pEC50, pIC50: −log10 of the molar value. Where two headings read alike, the source gives them in different places.

Legend:
[1] = target: T1, Recombinant human KIF18A (1-467 His-tagged) protein (Homo sapiens, UniProt Q8NI77); assay: KIF18A Enzyme Assay (microtubule-stimulated ATPase activity, ADP-Glo); type: biochemical; conditions: 30 nM KIF18A, 75 μM ATP
T1 construct: Recombinant human KIF18A (1-467 His-tagged) protein; His; made in house
Description: KIF18A Enzyme Assay: Microtubule-stimulated ATPase activity assay was used to measure KIF18A enzyme activity after treatment with compound. Compounds were 2-fold serially diluted in DMSO (Sigma Inc) over 22-point concentration range. […] The assay measures ADP formed from the ATPase reaction.
Concentration-response curve-fitting and IC50 determination was performed using Genedata Screener Software (Standard 15.0.1, Genedata Inc) with a four-parameter logistic regression fit model.

[2] = system: human bone marrow mononuclear cells (HBMNC); assay: BrdU cell cycle analysis and live cell count in normal cells; type: cell-based
Description: (§1) The effect KIF18A inhibitor treatment has on proliferation of normal somatic cells (e.g., not neoplastic cells) was tested by assaying proliferation of human bone marrow mononuclear cells (HBMNCs), primary human foreskin fibroblast cells (hFSF) and human mammary epithelial cells via a 5-bromo-2′-deoxyuridine (BrdU) incorporation assay in which BrdU, an analog of the nucleoside thymidine, is used to identify proliferating cells (Payton et. al., Molecular Cancer Therapeutics, 17(12):2575-85 (2018)). Cells were analyzed on BD LSRFortessa flow cytometer using BD FACSDiva software (BD Biosciences), and post-acquisition data analysis was performed using FSC-Express software (De Novo). The percentage of BrdU positive gated events on the stacked DNA content histograms were reported.
To further examine the effects of KIF18A inhibitor treatment on HBMNC, two normal donors were assessed using the BrdU coupled cell cycle assay and cell count assay (96 hours) was. […] In particular, the amount of BrdU-stained proliferating cells treated with Ispinesib, paclitaxel, or a CDK 4/6 inhibitor (palbociclib) was far less than the amount of vehicle control-treated BrdU-stained cells. […] KIF18A inhibitor treatment was also analyzed for impact on live cell count. After 96 hours, live cells were counted by Vi-CELL XR Cell Viability Analyzer (Beckman Coulter).
To investigate whether KIF18A inhibitors could circumvent this normal cell toxicity barrier, we examined the effects of Compounds C9 and C11 on a panel of cycling normal somatic cell types. First, we treated human bone marrow mononuclear cells (HBMNC) from two normal donors with DMSO, Compound C9 and C11 at 1 μM, ispinesib at 0.05 μM, paclitaxel at 0.05 μM, or palbociclib at 1 μM for 48 h (cell cycle) or 96 h (cell growth).
BrdU and cell cycle analysis. Human bone marrow mononuclear cells (HBMNCs) from two normal donors (#37612, #37534) were cultured for 8 days in defined media as previously described (Payton et al 2018). HBMNCs were seeded in 24-well plate at 1.2×10^6 cells per well in duplicate plates. Cells were treated with DMSO, Compound C9 (1 μM), Compound C11 (1 μM), ispinesib (0.05 μM), paclitaxel ([…]), or palbociclib (1 μM). Cells were collected at 48 h (cell cycle) and 96 h (cell growth). The first set of plates were pulsed with BrdU for 2 h and processing for BrdU cell cycle analysis as previously described (Payton et al 2018). Cells were analyzed on BD LSRFortessa flow cytometer running BD FACSDiva software and post-acquisition data analysis was performed using FSC-Express software. Data was reported for the percentage of BrdU and subG1 gated populations. The second set of plates were collected, and cells counted using Vi-CELL XR Cell Viability Analyzer (Beckman Coulter).

[3] = system: OVCAR-8 NCI/ADR-RES cells; assay: Nuclear count assay in multidrug resistant cells, with or without P-gp inhibitor; type: cell-based, human; conditions: 4-day NCA; for pEC50: Homo sapiens, 96 h, read-out: EC50 (Count POC)
Description: Compound was added to the cells with a final volume of 200 μL in complete media containing 0.5% DMSO.
The plates were sealed and incubated for 1 hour at room temperature in the dark. Cells were stored at 4° C. in the dark until data acquisition. […] The Total Valid Object Count was represented as a Count POC (Percentage of DMSO Control) using the following formula:
Briefly, OVCAR-8 cells were seeded in duplicate in a Corning 96-well Flat Clear Bottom Black Polystyrene plates (Corning, N.Y.) in 100 μL of appropriate complete media at the appropriate density and grown for 24 hours. […] After 4 days (96 hours) of treatment, the cells were fixed by removing 100 μL of complete media from each well and replacing it with 100 μL of 2×formaldehyde (final 4%) and incubating the plates for 15 minutes at room temperature. […] The plates were sealed and incubated for 1 hour at room temperature in the dark. Cells were stored at 4° C. in the dark until data acquisition. […] The Total Valid Object Count was represented as a Count POC (Percentage of DMSO Control) using the following formula:
Count POC=(Total Valid Object Count in treated well)[…](Total Valid Object Count in DMSO treated wells)×100
Compound concentration and Count POC values were plotted using GraphPad Prism software (V7.0.4) and curve-fitting was performed with 4-parameter equation (variable slope). The concentration-response curves and standard deviation represent two independent experiments run in duplicate.

[4] = system: human foreskin fibroblast (hFSF) cells; assay: BrdU incorporation assay in normal cells; type: cell-based; conditions: 48 hours
Description: as §1

[5] = system: human mammary epithelial cells (HMEC); assay: BrdU incorporation assay in normal cells; type: cell-based; conditions: 48 hours
Description: as §1

T1 sequence (Q8NI77 1-467): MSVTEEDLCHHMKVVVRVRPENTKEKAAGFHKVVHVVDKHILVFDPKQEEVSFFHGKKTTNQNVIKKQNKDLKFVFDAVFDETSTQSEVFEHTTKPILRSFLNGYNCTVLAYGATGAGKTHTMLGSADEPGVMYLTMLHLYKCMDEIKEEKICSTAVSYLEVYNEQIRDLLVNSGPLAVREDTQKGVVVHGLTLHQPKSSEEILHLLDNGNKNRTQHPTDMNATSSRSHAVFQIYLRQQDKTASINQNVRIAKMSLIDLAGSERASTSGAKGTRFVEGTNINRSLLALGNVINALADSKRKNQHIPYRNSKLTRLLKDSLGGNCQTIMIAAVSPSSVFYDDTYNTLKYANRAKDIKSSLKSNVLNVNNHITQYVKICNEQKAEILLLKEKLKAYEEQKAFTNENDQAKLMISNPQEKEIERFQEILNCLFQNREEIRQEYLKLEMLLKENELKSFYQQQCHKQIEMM
T1 sequence (P02550 whole entry partner): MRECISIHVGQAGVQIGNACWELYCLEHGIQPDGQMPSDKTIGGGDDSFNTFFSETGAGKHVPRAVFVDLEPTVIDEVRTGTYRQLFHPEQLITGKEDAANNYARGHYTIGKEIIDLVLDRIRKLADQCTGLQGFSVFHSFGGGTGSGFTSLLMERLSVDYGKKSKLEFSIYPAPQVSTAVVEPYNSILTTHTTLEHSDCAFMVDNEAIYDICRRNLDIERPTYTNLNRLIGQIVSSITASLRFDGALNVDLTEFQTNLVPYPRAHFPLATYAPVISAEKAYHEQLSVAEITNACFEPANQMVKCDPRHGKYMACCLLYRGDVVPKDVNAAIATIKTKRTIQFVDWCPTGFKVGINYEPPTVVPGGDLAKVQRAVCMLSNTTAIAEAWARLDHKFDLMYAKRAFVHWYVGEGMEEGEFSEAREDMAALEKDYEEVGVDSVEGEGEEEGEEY
T1 sequence (P02554 whole entry partner): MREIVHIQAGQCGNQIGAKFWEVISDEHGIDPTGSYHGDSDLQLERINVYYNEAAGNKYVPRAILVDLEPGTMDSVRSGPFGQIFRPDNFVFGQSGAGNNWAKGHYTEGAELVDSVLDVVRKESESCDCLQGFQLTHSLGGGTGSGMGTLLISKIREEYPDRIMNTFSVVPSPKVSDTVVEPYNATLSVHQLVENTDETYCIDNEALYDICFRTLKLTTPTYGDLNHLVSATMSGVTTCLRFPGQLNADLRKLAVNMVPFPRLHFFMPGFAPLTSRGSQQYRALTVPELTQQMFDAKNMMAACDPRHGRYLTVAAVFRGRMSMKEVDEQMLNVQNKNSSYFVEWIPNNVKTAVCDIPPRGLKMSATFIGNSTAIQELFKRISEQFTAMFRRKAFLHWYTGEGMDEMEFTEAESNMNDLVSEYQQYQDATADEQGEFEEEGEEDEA

CC(C)(C)NS(=O)(=O)c1cccc(NC(=O)c2ccc(S(=O)(=O)C3(C)COC3)cc2N2CCC3(CC2)CC3)c1 [Compound C8, N-(3-(N-(tert-Butyl)sulfamoyl)phenyl)-4-((3-methyloxetan-3-yl)sulfonyl)-2-(6-azaspiro[2.5]octan-6-yl)benzamide] was tested, and the pIC50 [1] was 7.21.
CC(=O)O[C@H]1C(=O)[C@@]2(C)[C@H]([C@H](OC(=O)c3ccccc3)[C@]3(O)C[C@H](OC(=O)[C@H](O)[C@@H](NC(=O)c4ccccc4)c4ccccc4)C(C)=C1C3(C)C)[C@]1(OC(C)=O)CO[C@@H]1C[C@@H]2O [Paclitaxel] was tested, and the “live cell count relative to vehicle control” value [2] was “lower cell count”, the “fold change in potency in the presence vs in the absence of the P-gp inhibitor” value ([3]; GF120918 1 μM) was “greater than 500 fold” and the pEC50 ([3]; absence of the P-gp inhibitor) was less than 6.00. For the same compound, the pEC50 ([3]; presence of P-gp inhibitor GF120918 (1 μM)) was 8.77.
Compound Cc1cc(NC(=O)c2ccc(S(=N)(=O)C3CC3)cc2N2CCC3(CC2)CC3)nc(N2CCC(F)(F)CC2)n1 (single isomer, unassigned) [Compound C2, 2-(6-azaspiro[2.5]octan-6-yl)-4-(S-cyclopropylsulfonimidoyl)-N-(2-(4,4-difluoro-1-piperidinyl)-6-methyl-4-pyrimidinyl)benzamide] has a pIC50 [1] of 7.24.
Cc1cc(NC(=O)c2ccc([S@](=N)(=O)C3CC3)cc2N2CCC3(CC2)CC3)nc(N2CCC(F)(F)CC2)n1 (single isomer, unassigned) [Compound C1, 2-(6-Azaspiro[2.5]octan-6-yl)-4-(R-cyclopropylsulfonimidoyl)-N-(2-(4,4-difluoro-1-piperidinyl)-6-methyl-4-pyrimidinyl)benzamide] gave a pIC50 [1] of 7.19.
Work on Cc1cc(NC(=O)c2ccc(NS(=O)(=O)[C@H](C)CO)cc2N2CCC3(CC2)CC3)nc(N2CCC(F)(F)CC2)n1 (single isomer, unassigned) [Compound C5] yielded a pIC50 [1] of 7.21.
With CC(=O)c1c(C)c2cnc(Nc3ccc(N4CCNCC4)cn3)nc2n(C2CCCC2)c1=O [Palbociclib] the “live cell count relative to vehicle control” value [2] was “lower cell count”, the “BrdU incorporation relative to DMSO treated cells” value [4] was “decrease in BrdU incorporation” and the “BrdU incorporation relative to DMSO treated cells” value [5] was “decrease in BrdU incorporation”.
In the case of CC(C)(C)NS(=O)(=O)c1cccc(NC(=O)c2ccc(NC(C)(C)CO)nc2N2CCC3(CC2)CC3)c1 [Compound C10, N-(3-(N-(tert-Butyl)sulfamoyl)phenyl)-6-((1-hydroxy-2-methylpropan-2-yl)amino)-2-(6-azaspiro[2.5]octan-6-yl)nicotinamide], the pIC50 [1] was 7.15.
Cc1cc(NC(=O)c2ccc(NS(=O)(=O)[C@@H](C)CO)cc2N2CCC3(CC2)CC3)nc(N2CCC(F)(F)CC2)n1 (single isomer, unassigned) [Compound C6] was tested, and the pIC50 [1] was 7.15.
